Results published in US20160106687A1, “HUMAN THERAPEUTIC AGENTS” (Life Plus, LLC, priority 2014, published 2016).

Legend:
Format in all cases: cell-based
[1] = tested on: human lung cancer cells (H358); assay: Cell death in lung cancer spheroids, PrestoBlue; details: techniques of Example 1
Procedure: (§1) The respective cells were individually cultured in a growth medium prepared using RPMI-1640 medium containing 11.1 mM D-glucose with 10% fetal bovine serum, 10 mM HEPES, 2 mM L-glutamine, 1 mM sodium pyruvate, 0.05 mM 2-mercaptoethanol, and Antibiotic-Antimycotic. These cells were maintained in T75 tissue culture flasks in a humidified incubator at 37° C. and 5% CO2. The media were changed on a third day after cell plating, and the cells were passaged on day 5 by trypsinization.
(§2) Custom-made micromolds with 100 um diameter wells were loaded with the cells (U.S. Pat. No. 8,735,154, incorporated by reference herein). The media were changed every day by partial replacement. Cell aggregates were allowed to form in the micromolds for 72 hours and then were transferred to a 100 mm non-treated tissue culture dishes for 3 additional days. The spheroids were passed through 70 um and 100 μm cell strainers (#3431751 and #43152, Corning, Tewksbury, Mass.) and maintained in HEPES Balanced Salt Solution comprised of: 20 mM HEPES, 114 mM NaCl, 4.7 mM KCl, 1.2 mM KH2PO4, 1.16 mM MgSO4, 2.5 mM CaCl2, 25.5 mM NaHCO3 and 0.2% bovine serum albumin (fatty acid free), pH 7.2.
The lymphomas treatment methods used were identical to those described in Example 2 relative to the pediatric leukemia cells, whereas the lung cancer treatment method was the same as described in Example 1.

[2] = tested on: human ovarian cancer cells (A1847); assay: Cell death in ovarian cancer spheroids, PrestoBlue; details: techniques of Example 1
Procedure: as §1, §2
(§3) The cells were treated and tested as set forth in Example 1.

[3] = tested on: human prostate cancer cells (22rv1); assay: Cell death in prostate cancer spheroids, PrestoBlue; details: techniques of Example 1
Procedure: as §1, §2, §3

ovarian cancer cells = assay: Synergism with doxorubicin on ovarian cancer spheroids; details: low doses, up to 0.158 μM
Procedure: In this test, the synergism of GZ17-6.02 with doxorubicin (a common chemotherapy drug) was tested on ovarian cancer cells. In this test, increasing doses of doxorubicin were administered to ovarian cancer spheroids and cell deaths were measured, as described in Example 1. The protocol involved testing doxorubicin alone at various dosages (FIG. 8, doxorubicin alone—closed circles), with comparative tests using the various dosages of doxorubicin in combination with either 0.2 mg/mL (FIG. 8 open circles) or 0.4 mg/mL (FIG. 8 closed triangles) GZ17-6.02. Additionally, the induced cell death results from use of 0.2 mg/mL GZ17-6.02 alone (FIG. 8, line A) and 0.4 mg/mL GZ17-6.02 alone (FIG. 8, line B) were determined.

Row | Compound | anticancer effects (cell number versus increasing concentrations), compound alone [1] | anticancer effects (cell number versus increasing concentrations), compound alone [2] | anticancer effects (cell number versus increasing concentrations), compound alone [3] | cell death, doxorubicin alone (ovarian cancer cells)
1 | COc1cccc(C=O)c1O [O-vanillin] | demonstrated anticancer effects | demonstrated anticancer effects | demonstrated anticancer effects | 
2 | COc1cccc2c1C(=O)c1c(O)c3c(c(O)c1C2=O)C[C@@](O)(C(=O)CO)C[C@@H]3O[C@H]1C[C@H](N)[C@H](O)[C@H](C)O1 [doxorubicin] |  |  |  | ineffective
3 | COc1ccc2c3c([nH]c2c1)C(C)=NCC3 [harmaline] | demonstrated anticancer effects | demonstrated anticancer effects | demonstrated anticancer effects | 
4 | CC1=NCCc2c1[nH]c1cc(O)ccc21.Cl [harmalol hydrochloride] | demonstrated anticancer effects | demonstrated anticancer effects | demonstrated anticancer effects | 
5 | Cc1nccc2c1[nH]c1cc(O)ccc12.Cl [harmole hydrochloride] | demonstrated anticancer effects | demonstrated anticancer effects | demonstrated anticancer effects | 
6 | COc1ccc(C(=O)O)cc1O [isovanillic acid] | demonstrated anticancer effects | demonstrated anticancer effects | demonstrated anticancer effects | 
7 | COc1ccc(CO)cc1O [isovanillyl alcohol] | demonstrated anticancer effects | demonstrated anticancer effects | demonstrated anticancer effects | 
8 | COc1ccc2c3c([nH]c2c1)[C@@H](C)NCC3 [tetrahydro-harmine] | demonstrated anticancer effects | demonstrated anticancer effects | demonstrated anticancer effects | 
9 | COc1cc(C=O)ccc1O [vanillin] | demonstrated anticancer effects | demonstrated anticancer effects | demonstrated anticancer effects | 
